Measured values reported in patent publication US8580811B2 (Ligand Pharmaceuticals Incorporated, priority 2005, dated 2013).
Where two headings read alike, the source gives them in different places.

Biological target: T1, human AR (Homo sapiens, UniProt P10275)
T1 construct: expressed in transfected cells; host or cells: COS-1 cells
T1 sequence (P10275 1-920): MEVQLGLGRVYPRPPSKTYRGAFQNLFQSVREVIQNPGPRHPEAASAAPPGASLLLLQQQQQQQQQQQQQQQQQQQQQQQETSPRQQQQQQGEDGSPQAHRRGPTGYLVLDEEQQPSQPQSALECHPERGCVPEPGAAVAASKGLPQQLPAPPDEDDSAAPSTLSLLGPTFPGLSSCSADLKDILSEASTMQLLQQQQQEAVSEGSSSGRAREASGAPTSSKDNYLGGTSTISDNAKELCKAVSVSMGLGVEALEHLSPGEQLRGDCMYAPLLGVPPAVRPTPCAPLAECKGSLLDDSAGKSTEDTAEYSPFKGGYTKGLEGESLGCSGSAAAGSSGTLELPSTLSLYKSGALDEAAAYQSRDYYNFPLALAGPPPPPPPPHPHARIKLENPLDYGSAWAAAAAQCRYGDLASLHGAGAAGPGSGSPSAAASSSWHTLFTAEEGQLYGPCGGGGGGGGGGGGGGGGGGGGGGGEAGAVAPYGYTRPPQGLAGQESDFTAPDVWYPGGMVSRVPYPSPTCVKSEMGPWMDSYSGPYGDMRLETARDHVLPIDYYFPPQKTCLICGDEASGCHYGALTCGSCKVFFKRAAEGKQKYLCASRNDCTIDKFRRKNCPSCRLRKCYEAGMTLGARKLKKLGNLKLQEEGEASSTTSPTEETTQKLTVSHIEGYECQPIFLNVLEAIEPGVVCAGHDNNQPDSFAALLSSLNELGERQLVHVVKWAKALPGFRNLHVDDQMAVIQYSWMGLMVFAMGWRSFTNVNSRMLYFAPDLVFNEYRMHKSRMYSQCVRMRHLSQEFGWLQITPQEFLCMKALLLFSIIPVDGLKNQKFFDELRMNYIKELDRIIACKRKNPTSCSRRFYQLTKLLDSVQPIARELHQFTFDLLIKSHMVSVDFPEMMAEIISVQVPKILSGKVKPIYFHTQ
Experiment: IR Binding Assay: whole cell competitive binding of test compounds against 3H-DHT in COS-1 cells transfected with pRShAR
How it was run: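 COS-1 cells transfected with pRShAR plus β-Gal reporter, serum-starved 24 h, then exposed to 1 nM ³H-DHT with compounds at 10^−10 to 10^−6 M for 3 h at 37 °C. Bound ³H-DHT counted in lysates, normalized to β-Gal. IC50 from log-logit plot; Ki via Cheng-Prusoff using Kd from Scatchard saturation analysis.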

Compound	Ki [nM]	Ki (competition with 1 nM 3H-DHT, transfected COS-1 cells, 3 h at 37° C., Cheng-Prusoff from IC50, read-out: Ki) [nM]
CCC1c2c(ccc3[nH]c(=O)cc(Cl)c23)N(CC(F)(F)F)C1C (racemic) [Compound 129, (±)-9-Chloro-1-ethyl-2-methyl-3-(2,2,2-trifluoro-ethyl)-1,2,3,6-tetrahydropyrrolo[3,2-f]-quinolin-7-one]	> 10	
Cc1c(C)n(CCC(F)(F)F)c2ccc3[nH]c(=O)cc(C(F)(F)F)c3c12 [Compound 221, 1,2-Dimethyl-9-trifluoromethyl-3-(3,3,3-trifluoropropyl)-3,6-dihydro-pyrrolo[3,2-f]-quinolin-7-one]	< 5	
Cc1c(CO)n(CC(F)(F)F)c2ccc3[nH]c(=O)cc(C(F)(F)F)c3c12 [Compound 235, 2-Hydroxymethyl-1-methyl-3-(2,2,2-trifluoro-ethyl)-9-trifluoromethyl-3,6-dihydro-pyrrolo[3,2-f]-quinolin-7-one]	> 10	
CCc1c(C)c2c3c(C(F)(F)F)cc(=O)[nH]c3ccc2n1CCC(F)(F)F [Compound 226, 2-Ethyl-1-methyl-9-trifluoromethyl-3-(3,3,3-trifluoropropyl)-3,6-dihydro-pyrrolo[3,2-f]-quinolin-7-one]	< 5	
CC1c2c(ccc3[nH]c(=O)cc(Cl)c23)N(CC(F)(F)F)C1c1cccc(C(F)(F)F)c1 (racemic) [Compound 159, (±)-9-Chloro-1-methyl-3-(2,2,2-trifluoroethyl)-2-(3-trifluoromethylphenyl)-1,2,3,6-tetrahydropyrrolo[3,2-f]quinolin-7-one]	> 10	
CCC1C(C)c2c(ccc3[nH]c(=O)cc(C(F)(F)F)c23)N1CC(F)(F)C(F)(F)F (racemic) [Compound 179, (±)-2-Ethyl-1-methyl-3-(2,2,3,3,3-pentafluoropropyl)-9-trifluoromethyl-1,2,3,6-tetrahydro-pyrrolo[3,2-f]quinolin-7-one]	< 5	
Cc1c(-c2ccncc2)n(CC(F)(F)C(F)(F)F)c2ccc3[nH]c(=O)cc(Cl)c3c12 [Compound 263, 9-Chloro-1-methyl-3-(2,2,3,3,3-pentafluoropropyl)-2-(4-pyridyl)-3,6-dihydro-pyrrolo[3,2-f]quinolin-7-one]	< 5	
Cc1c(-c2ccccn2)n(CC(F)(F)C(F)(F)F)c2ccc3[nH]c(=O)cc(Cl)c3c12 [Compound 265, 9-Chloro-1-methyl-3-(2,2,3,3,3-pentafluoropropyl)-2-(2-pyridyl)-3,6-dihydro-pyrrolo[3,2-f]quinolin-7-one]	< 5	
Cc1c(C)n(C[C@H](O)CO)c2ccc3[nH]c(=O)cc(Cl)c3c12 [Compound 291, (S)-9-Chloro-3-(2,3-dihydroxypropyl)-1,2-dimethyl-3,6-dihydro-pyrrolo[3,2-f]-quinolin-7-one]	> 10	
CCc1c(C)c2c3c(Cl)cc(=O)[nH]c3ccc2n1CCC(F)(F)F [Compound 216, 9-Chloro-2-ethyl-1-methyl-3-(3,3,3-trifluoropropyl)-3,6-dihydro-pyrrolo[3,2-f]quinolin-7-one]	< 5	
Cc1cc2c3c(Cl)cc(=O)[nH]c3ccc2n1CC(F)(F)F [Compound 186, 9-Chloro-2-methyl-3-(2,2,2-trifluoroethyl)-3,6-dihydro-pyrrolo[3,2-f]quinolin-7-one]	5 to 10	
CC1c2c(ccc3[nH]c(=O)cc(Cl)c23)N(CC(F)(F)F)C1c1cccc(Br)c1 (racemic) [Compound 153, (±)-2-(3-Bromophenyl)-9-chloro-1-methyl-3-(2,2,2-trifluoroethyl)-1,2,3,6-tetrahydro-pyrrolo[3,2-f]quinolin-7-one]	> 10	
CCc1c(C)c2c3c(C(F)(F)F)cc(=O)[nH]c3ccc2n1CC(F)(F)Cl [Compound 224, 3-(2-Chloro-2,2-difluoroethyl)-2-ethyl-1-methyl-9-trifluoromethyl-3,6-dihydro-pyrrolo[3,2-f]-quinolin-7-one]	< 5	
Cc1c(C)n(CCCO)c2ccc3[nH]c(=O)cc(C(F)(F)F)c3c12 [Compound 249, 1,2-Dimethyl-3-(3-hydroxypropyl)-9-trifluoromethyl-3,6-dihydro-pyrrolo[3,2-f]quinolin-7-one]	< 5	
Cc1c(-c2cccs2)n(C[C@@H](O)C(F)(F)F)c2ccc3[nH]c(=O)cc(Cl)c3c12 [Compound 282, (R)-9-Chloro-1-methyl-2-thiophen-2-yl-3-(3,3,3-trifluoro-2-hydroxy-propyl)-3,6-dihydro-pyrrolo[3,2-f]quinolin-7-one]	< 5	
Cc1c(-c2ccncc2)n(CC(F)(F)F)c2ccc3[nH]c(=O)cc(Cl)c3c12 [Compound 254, 9-Chloro-1-methyl-2-(4-pyridyl)-3-(2,2,2-trifluoroethyl)-3,6-dihydro-pyrrolo[3,2-f]-quinolin-7-one]		> 10
CCC1C(C)c2c(ccc3[nH]c(=O)cc(C(F)(F)F)c23)N1CCCC(F)(F)F (racemic) [Compound 181, (±)-2-Ethyl-1-methyl-3-(4,4,4-trifluorobutyl)-9-trifluoromethyl-1,2,3,6-tetrahydro-pyrrolo[3,2-f]quinolin-7-one]	5 to 10	
CCc1c(C)c2c3c(C(F)(F)F)cc(=O)[nH]c3ccc2n1CCCC(F)(F)F [Compound 228, 2-Ethyl-1-methyl-3-(4,4,4-trifluorobutyl)-9-trifluoromethyl-3,6-dihydro-pyrrolo[3,2-f]-quinolin-7-one]	< 5	
Cc1c(-c2ccccc2)[nH]c2ccc3[nH]c(=O)cc(Cl)c3c12 [Compound 110, 9-Chloro-1-methyl-2-phenyl-3,6-dihydro-pyrrolo[3,2-f]quinolin-7-one]	< 5	
CC1c2c(ccc3[nH]c(=O)cc(Cl)c23)N(CCC(F)(F)F)C1c1ccccc1 (racemic) [Compound 169, (±)-9-Chloro-1-methyl-2-phenyl-3-(3,3,3-trifluoropropyl)-1,2,3,6-tetrahydro-pyrrolo[3,2-f]quinolin-7-one]	< 5	
Cc1c[nH]c2ccc3[nH]c(=O)cc(Cl)c3c12 [Compound 114, 9-Chloro-1-methyl-3,6-dihydro-pyrrolo[3,2-f]quinolin-7-one]	> 10	
Cc1c(-c2cccnc2)n(CC(F)(F)C(F)(F)F)c2ccc3[nH]c(=O)cc(Cl)c3c12 [Compound 264, 9-Chloro-1-methyl-3-(2,2,3,3,3-pentafluoropropyl)-2-(3-pyridyl)-3,6-dihydro-pyrrolo[3,2-f]quinolin-7-one]	< 5	
Cc1c(C(F)(F)F)n(CC(O)C(F)(F)F)c2ccc3[nH]c(=O)cc(Cl)c3c12 (racemic) [Compound 233, (±)-9-Chloro-1-methyl-3-(3,3,3-trifluoro-2-hydroxypropyl)-2-trifluoromethyl-3,6-dihydropyrrolo[3,2-f]quinolin-7-one]	< 5	
Cc1c(C)n(C[C@@H](O)C(F)(F)F)c2ccc3[nH]c(=O)cc(Cl)c3c12 [Compound 278, (R)-9-Chloro-1,2-dimethyl-3-(3,3,3-trifluoro-2-hydroxy-propyl)-3,6-dihydro-pyrrolo[3,2-f]-quinolin-7-one]	< 5	
CCC1C(C)c2c(ccc3[nH]c(=O)cc(Cl)c23)N1CC(F)(F)F (racemic) [Compound 128, (±)-9-Chloro-2-ethyl-1-methyl-3-(2,2,2-trifluoro-ethyl)-1,2,3,6-tetrahydro-pyrrolo[3,2-f]quinolin-7-one]	> 10	
Cc1c(-c2ccncc2)n(C[C@@H](O)C(F)(F)F)c2ccc3[nH]c(=O)cc(Cl)c3c12 [Compound 283, (R)-9-Chloro-1-methyl-2-(4-pyridyl)-3-(3,3,3-trifluoro-2-hydroxy-propyl)-3,6-dihydro-pyrrolo[3,2-f]quinolin-7-one]	5 to 10	
CC(C)=Cn1c(C)c(C)c2c3c(C(F)(F)F)cc(=O)[nH]c3ccc21 [Compound 238, 1,2-Dimethyl-3-(2-methylprop-1-enyl)-9-trifluoromethyl-3,6-dihydro-pyrrolo[3,2-f]-quinolin-7-one]	< 5	
Cc1c(-c2ccc(F)cc2F)[nH]c2ccc3[nH]c(=O)cc(Cl)c3c12 [Compound 117, 9-Chloro-2-(2,4-difluorophenyl)-1-methyl-3,6-dihydro-pyrrolo[3,2-f]quinolin-7-one]	< 5	
Cc1cc2c(ccc3[nH]c(=O)cc(Cl)c32)[nH]1 [Compound 112, 9-Chloro-2-methyl-3,6-dihydro-pyrrolo[3,2-f]quinolin-7-one]	> 10	
CCC1C(C)c2c(ccc3[nH]c(=O)cc(Cl)c23)N1CC(F)(F)C(F)(F)F (racemic) [Compound 177, (±)-9-Chloro-2-ethyl-1-methyl-3-(2,2,3,3,3-pentafluoropropyl)-1,2,3,6-tetrahydro-pyrrolo[3,2-f]quinolin-7-one]	< 5	
